Counter-ions that a name gives are not always drawn.
Test: ICH-compliant stability study of ONC206-HCl Drug Substance (appearance, XRPD form, HPLC assay, purity/impurities, water content, particle size, microbial)
Assay type: physicochemical
Parameters: key to Each unidentified impurity (NMT 0.5% area) / Appearance (White to off-white solid) / Polymorphic form (XRPD) (Consistent with form 2 reference diffractogram): C = Conforms; A = Absence
Protocol: The purpose of the ICH-compliant stability study was to evaluate the performance to specifications of ONC206-HCl Drug Substance under specified container closure configuration, storage conditions, and intervals.
The study was performed according to ICH Q1A(R2) and QlE Guidance documents. […]
The Container Closure Systems were: • Primary container: LDPE bag, 4×8 inches (Source: Nexus—64378); bag closure PE 180 nm (Source: Entourage), • Secondary container: LDPE bag, 4×8 inches (Source: Nexus—64378); bag closure PE 180 nm (Source: Entourage), • Tertiary container: Heat-sealed foil bag, 15×30 (Source: SERCALIA S.L.—10234), and • Outer container: Plastic drum, 6 L (Source: Curtec, HDPE ref 54021) or Plastic drum, 3.6 L (Source: Curtec).

[1] = 30 ± 2° C./65% ± 5% RH intermediate conditions, 9 months
[2] = 30 ± 2° C./65% ± 5% RH intermediate conditions, 12 months
[3] = 40 ± 2° C./75% ± 5% RH accelerated conditions, 0 months
[4] = 40 ± 2° C./75% ± 5% RH accelerated conditions, 3 months
[5] = 40 ± 2° C./75% ± 5% RH accelerated conditions, 6 months
[6] = at all conditions, over the course of the study

O=C1C2=C(CCN(Cc3ccccc3)C2)N2CCN=C2N1Cc1ccc(F)cc1F [ONC206-HCl, 7-benzyl-4-(2,4-difluorobenzyl)-2,4,6,7,8,9-hexahydroimidazo[1,2-a]pyrido[3,4-e]pyrimidin-5(1H)-one]
Particle Size (Malvern) D10 (Report result μm) [1]: 30.5 μm | Particle Size (Malvern) D50 (Report result μm) [1]: 93.2 μm | Particle Size (Malvern) D90 (Report result μm) [1]: 197.0 μm | Polymorphic form (XRPD) (Consistent with form 2 reference diffractogram) [1]: C | Purity by HPLC (NLT 98.0% area) [1]: 100.0 % area | Total impurities (NMT 2.0% area) [1]: 0.00 % area | Water Content by Kf (Report result % w/w) [1]: 9.3 % w/w | Appearance (White to off-white solid) [2]: C | Assay by HPLC-UV (Anhydrous & Solvent Free basis) 97.0-103.0% w/w [2]: 100.0 % w/w | Each unidentified impurity (NMT 0.5% area) [2]: C | Particle Size (Malvern) D10 (Report result μm) [2]: 29.7 μm | Particle Size (Malvern) D50 (Report result μm) [2]: 93.7 μm | Particle Size (Malvern) D90 (Report result μm) [2]: 203.0 μm | Polymorphic form (XRPD) (Consistent with form 2 reference diffractogram) [2]: C | Purity by HPLC (NLT 98.0% area) [2]: 100.0 % area | Total impurities (NMT 2.0% area) [2]: 0.00 % area | Water Content by Kf (Report result % w/w) [2]: 9.3 % w/w | period over which stability is confirmed (40° C. (Table 40), 75% RH accelerated conditions): 6 months | Appearance (White to off-white solid) [3]: C | Assay by HPLC-UV (Anhydrous & Solvent Free basis) 97.0-103.0% w/w [3]: 101.6 % w/w | Each unidentified impurity (NMT 0.5% area) [3]: C | Particle Size (Malvern) D10 (Report result μm) [3]: 28.2 μm | Particle Size (Malvern) D50 (Report result μm) [3]: 91.4 μm | Particle Size (Malvern) D90 (Report result μm) [3]: 201.3 μm | Polymorphic form (XRPD) (Consistent with form 2 reference diffractogram) [3]: C | Purity by HPLC (NLT 98.0% area) [3]: 100.0 % area | Total impurities (NMT 2.0% area) [3]: 0.00 % area | Water Content by Kf (Report result % w/w) [3]: 9.3 % w/w | Appearance (White to off-white solid) [4]: C | Assay by HPLC-UV (Anhydrous & Solvent Free basis) 97.0-103.0% w/w [4]: 100.1 % w/w | Each unidentified impurity (NMT 0.5% area) [4]: C | Particle Size (Malvern) D10 (Report result μm) [4]: 28.1 μm | Particle Size (Malvern) D50 (Report result μm) [4]: 91.5 μm | Particle Size (Malvern) D90 (Report result μm) [4]: 199.0 μm | Polymorphic form (XRPD) (Consistent with form 2 reference diffractogram) [4]: C | Purity by HPLC (NLT 98.0% area) [4]: 100.0 % area | Total impurities (NMT 2.0% area) [4]: 0.00 % area | Water Content by Kf (Report result % w/w) [4]: 9.5 % w/w | Each unidentified impurity (Report RRT and % area for peaks ≥0.10% area) (40 ± 2° C./75% ± 5% RH accelerated conditions, 3 months, peak RRT 1.30): 0.10% aire | Appearance (White to off-white solid) [5]: C | Assay by HPLC-UV (Anhydrous & Solvent Free basis) 97.0-103.0% w/w [5]: 100.2 % w/w | Each unidentified impurity (NMT 0.5% area) [5]: C | Particle Size (Malvern) D10 (Report result μm) [5]: 29.2 μm | Particle Size (Malvern) D50 (Report result μm) [5]: 92.6 μm | Particle Size (Malvern) D90 (Report result μm) [5]: 201.0 μm | Polymorphic form (XRPD) (Consistent with form 2 reference diffractogram) [5]: C | Purity by HPLC (NLT 98.0% area) [5]: 100.0 % area | Total impurities (NMT 2.0% area) [5]: 0.00 % area | Water Content by Kf (Report result % w/w) [5]: 9.5 % w/w | Particle Size (D10, D50 and D90) [6]: no significant evolution | Polymorphic form (XRPD) [6]: no significant change | Purity and total impurities [6]: no significant evolution | Water Content [6]: no significant evolution | appearance [6]: no significant change | Assay HPLC (over the course of the study): no significant evolution | microbial results (over the course of the study): in specifications | period over which stability is confirmed (−20° C. (Table 41)): 12 months | Appearance (White to off-white solid) (−20° C., 0 months): C | Assay by HPLC-UV (Anhydrous & Solvent Free basis) 97.0-103.0% w/w (−20° C., 0 months): 101.6 % w/w | Each unidentified impurity (NMT 0.5% area) (−20° C., 0 months): C | Particle Size (Malvern) D50 (Report result μm) (−20° C., 0 months): 91.4 μm | Particle Size (Malvern) D90 (Report result μm) (−20° C., 0 months): 201.3 μm | Particle Size (Malvern) Dl0 (Report result μm) (−20° C., 0 months): 28.2 μm | Polymorphic form (XRPD) (Consistent with form 2 reference diffractogram) (−20° C., 0 months): C | Purity by HPLC (NLT 98.0% area) (−20° C., 0 months): 100.0 % area | Total impurities (NMT 2.0% area) (−20° C., 0 months): 0.00 % area | Water Content by Kf (Report result % w/w) (−20° C., 0 months): 9.3 % w/w | Appearance (White to off-white solid) (−20° C., 1 months): C | Assay by HPLC-UV (Anhydrous & Solvent Free basis) 97.0-103.0% w/w (−20° C., 1 months): 101.5 % w/w | Each unidentified impurity (NMT 0.5% area) (−20° C., 1 months): C | Particle Size (Malvern) D50 (Report result μm) (−20° C., 1 months): 89.5 μm | Particle Size (Malvern) D90 (Report result μm) (−20° C., 1 months): 193.0 μm | Particle Size (Malvern) Dl0 (Report result μm) (−20° C., 1 months): 27.5 μm | Polymorphic form (XRPD) (Consistent with form 2 reference diffractogram) (−20° C., 1 months): C | Purity by HPLC (NLT 98.0% area) (−20° C., 1 months): 100.0 % area | Total impurities (NMT 2.0% area) (−20° C., 1 months): 0.00 % area | Water Content by Kf (Report result % w/w) (−20° C., 1 months): 9.3 % w/w | Appearance (White to off-white solid) (−20° C., 2 months): C | Assay by HPLC-UV (Anhydrous & Solvent Free basis) 97.0-103.0% w/w (−20° C., 2 months): 100.2 % w/w | Each unidentified impurity (NMT 0.5% area) (−20° C., 2 months): C | Particle Size (Malvern) D50 (Report result μm) (−20° C., 2 months): 90.6 μm | Particle Size (Malvern) D90 (Report result μm) (−20° C., 2 months): 189.0 μm | Particle Size (Malvern) Dl0 (Report result μm) (−20° C., 2 months): 28.8 μm | Polymorphic form (XRPD) (Consistent with form 2 reference diffractogram) (−20° C., 2 months): C | Purity by HPLC (NLT 98.0% area) (−20° C., 2 months): 100.0 % area | Total impurities (NMT 2.0% area) (−20° C., 2 months): 0.00 % area | Water Content by Kf (Report result % w/w) (−20° C., 2 months): 9.4 % w/w | Appearance (White to off-white solid) (−20° C., 3 months): C | Assay by HPLC-UV (Anhydrous & Solvent Free basis) 97.0-103.0% w/w (−20° C., 3 months): 100.0 % w/w | Each unidentified impurity (NMT 0.5% area) (−20° C., 3 months): C | Particle Size (Malvern) D50 (Report result μm) (−20° C., 3 months): 89.4 μm | Particle Size (Malvern) D90 (Report result μm) (−20° C., 3 months): 195.0 μm | Particle Size (Malvern) Dl0 (Report result μm) (−20° C., 3 months): 27.2 μm | Polymorphic form (XRPD) (Consistent with form 2 reference diffractogram) (−20° C., 3 months): C | Purity by HPLC (NLT 98.0% area) (−20° C., 3 months): 100.0 % area | Total impurities (NMT 2.0% area) (−20° C., 3 months): 0.00 % area | Water Content by Kf (Report result % w/w) (−20° C., 3 months): 9.5 % w/w | Appearance (White to off-white solid) (−20° C., 6 months): C | Assay by HPLC-UV (Anhydrous & Solvent Free basis) 97.0-103.0% w/w (−20° C., 6 months): 100.1 % w/w | Each unidentified impurity (NMT 0.5% area) (−20° C., 6 months): C | Particle Size (Malvern) D50 (Report result μm) (−20° C., 6 months): 89.0 μm | Particle Size (Malvern) D90 (Report result μm) (−20° C., 6 months): 192.0 μm | Particle Size (Malvern) Dl0 (Report result μm) (−20° C., 6 months): 27.5 μm | Polymorphic form (XRPD) (Consistent with form 2 reference diffractogram) (−20° C., 6 months): C | Purity by HPLC (NLT 98.0% area) (−20° C., 6 months): 100.0 % area | Total impurities (NMT 2.0% area) (−20° C., 6 months): 0.00 % area | Water Content by Kf (Report result % w/w) (−20° C., 6 months): 9.3 % w/w | Appearance (White to off-white solid) (−20° C., 9 months): C | Assay by HPLC-UV (Anhydrous & Solvent Free basis) 97.0-103.0% w/w (−20° C., 9 months): 100.4 % w/w | Each unidentified impurity (NMT 0.5% area) (−20° C., 9 months): C | Particle Size (Malvern) D50 (Report result μm) (−20° C., 9 months): 91.8 μm | Particle Size (Malvern) D90 (Report result μm) (−20° C., 9 months): 196.0 μm | Particle Size (Malvern) Dl0 (Report result μm) (−20° C., 9 months): 29.5 μm | Polymorphic form (XRPD) (Consistent with form 2 reference diffractogram) (−20° C., 9 months): C | Purity by HPLC (NLT 98.0% area) (−20° C., 9 months): 100.0 % area | Total impurities (NMT 2.0% area) (−20° C., 9 months): 0.00 % area | Water Content by Kf (Report result % w/w) (−20° C., 9 months): 9.3 % w/w | Appearance (White to off-white solid) (−20° C., 12 months): C | Assay by HPLC-UV (Anhydrous & Solvent Free basis) 97.0-103.0% w/w (−20° C., 12 months): 99.9 % w/w | Each unidentified impurity (NMT 0.5% area) (−20° C., 12 months): C | Particle Size (Malvern) D50 (Report result μm) (−20° C., 12 months): 92.2 μm | Particle Size (Malvern) D90 (Report result μm) (−20° C., 12 months): 201.0 μm | Particle Size (Malvern) Dl0 (Report result μm) (−20° C., 12 months): 28.7 μm | Polymorphic form (XRPD) (Consistent with form 2 reference diffractogram) (−20° C., 12 months): C | Purity by HPLC (NLT 98.0% area) (−20° C., 12 months): 100.0 % area | Total impurities (NMT 2.0% area) (−20° C., 12 months): 0.00 % area | Water Content by Kf (Report result % w/w) (−20° C., 12 months): 9.2 % w/w

— patent US20260265252A1, “SOLID STATE FORMS OF IMIPRIDONE DERIVATIVE” (CHIMERIX, INC., priority 2024, published 2026)
